# Assay results published in ChEMBL document CHEMBL1158550, “The cytotoxic styryl lactone goniothalamin is an inhibitor of nucleocytoplasmic transport” (Bioorg Med Chem Lett, 2010).
# pIC50: −log10 of the molar value. Activity calls are given as the source filed them. The calls are words filed in the database; no cut-off is given here.
# What was measured:
# MDA-MB-231 [1] = experiment: Induction of apoptosis in human MDA-MB-231 cells; format: functional, cell-based
# [2] = target: Exportin-1 (Homo sapiens) (UniProt O14980); experiment: Inhibition of CRM1-mediated nuclear export of Rio2 in human HeLa cells at 1 uM; format: cell-based
# MDA-MB-231 [3] = experiment: Cytotoxicity against human MDA-MB-231 cells; format: functional, cell-based
# [4] = target: Exportin-1 (Homo sapiens) (UniProt O14980); experiment: Inhibition of CRM1-mediated nuclear export of Rio2 in human HeLa cells at 2 uM; format: cell-based
# Chain of Exportin-1 (Homo sapiens) (O14980 whole entry): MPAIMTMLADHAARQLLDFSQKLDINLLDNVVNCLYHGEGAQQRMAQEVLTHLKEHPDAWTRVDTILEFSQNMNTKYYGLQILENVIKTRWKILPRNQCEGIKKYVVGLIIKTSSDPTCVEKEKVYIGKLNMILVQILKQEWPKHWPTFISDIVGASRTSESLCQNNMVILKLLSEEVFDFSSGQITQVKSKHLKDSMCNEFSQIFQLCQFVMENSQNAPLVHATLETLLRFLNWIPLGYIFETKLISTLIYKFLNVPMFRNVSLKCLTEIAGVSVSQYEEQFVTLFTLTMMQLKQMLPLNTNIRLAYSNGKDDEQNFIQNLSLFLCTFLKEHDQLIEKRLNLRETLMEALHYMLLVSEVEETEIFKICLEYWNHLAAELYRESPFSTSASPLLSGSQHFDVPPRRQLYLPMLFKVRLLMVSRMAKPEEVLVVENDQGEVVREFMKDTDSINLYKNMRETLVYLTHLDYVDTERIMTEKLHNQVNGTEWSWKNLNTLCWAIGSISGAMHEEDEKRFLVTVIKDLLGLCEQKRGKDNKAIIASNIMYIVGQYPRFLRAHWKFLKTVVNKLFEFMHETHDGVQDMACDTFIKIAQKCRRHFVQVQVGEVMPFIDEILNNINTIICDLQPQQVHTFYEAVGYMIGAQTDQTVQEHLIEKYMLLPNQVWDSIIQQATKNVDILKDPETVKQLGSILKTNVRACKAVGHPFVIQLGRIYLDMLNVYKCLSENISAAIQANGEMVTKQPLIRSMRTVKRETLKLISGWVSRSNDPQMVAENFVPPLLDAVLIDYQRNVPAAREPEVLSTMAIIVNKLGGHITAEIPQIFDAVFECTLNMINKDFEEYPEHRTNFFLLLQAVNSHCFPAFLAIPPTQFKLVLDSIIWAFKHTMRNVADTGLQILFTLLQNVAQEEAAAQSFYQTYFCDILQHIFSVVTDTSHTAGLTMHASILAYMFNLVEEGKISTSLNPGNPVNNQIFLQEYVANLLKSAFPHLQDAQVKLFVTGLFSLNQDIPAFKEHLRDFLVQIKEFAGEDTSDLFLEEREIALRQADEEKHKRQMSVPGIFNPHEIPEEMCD
SMILES,Activity (MDA-MB-231 [1]),inhibition [2],pIC50 (MDA-MB-231 [3]),inhibition [4]
O=C1C=CC[C@H](/C=C/c2ccccc2)O1 [GONIOTHALAMIN],Active,Active,5.84,–
O=C1C=CC[C@H](Cc2ccccc2)O1,–,–,–,inactive
O=C1C=CC[C@H](C#C/C=C/c2ccccc2)O1,–,–,–,inactive
O=C1C=CC[C@H](c2ccc(-c3ccccc3)cc2)O1,–,–,–,inactive
O=C1C=CC[C@H](c2ccccc2)O1,–,–,–,inactive
